{
  "source": "patent US20150297629A1",
  "about": "“MODULATION OF RENIN-ANGIOTENSIN SYSTEM (RAS) RELATED DISEASES BY ANGIOTENSINOGEN” (Isis Pharmaceuticals, Inc,, priority 2012, published 2015)",
  "key": {"female SHR rats [1]": {"system": "female SHR rats", "assay": "Heart size after harvest in female SHR rats, Study 2", "type": "in vivo, Spontaneously hypertensive (SHR) rats", "settings": "after 3 weeks, versus wild-type controls", "protocol": "The size of the heart was measured immediately after harvest."}, "female SHR rats [2]": {"system": "female SHR rats", "assay": "Blood pressure by tail-cuff method in female SHR rats, Study 1", "type": "in vivo, Spontaneously hypertensive (SHR) rats", "settings": "2 weeks", "method": "Groups of female SHR rats were injected with 50 mg/kg/week, 75 mg/kg/week, or 100 mg/kg/week of ISIS 552668 administered for 2 weeks. A control group of female SHR rats was injected with phosphate buffered saline (PBS) administered weekly for 2 weeks. Another control group constituted a group of wild-type rats injected with phosphate buffered saline (PBS) administered weekly for 2 weeks.\n(§1) Systolic blood pressure (SBP), mean arterial pressure (MAP), and diastolic blood pressure (DBP) in the rats was measured by the tail-cuff volume-pressure method (Kent Scientific, Torrington, Conn.)."}, "angiotensinogen mRNA [3]": {"system": "angiotensinogen mRNA", "assay": "Real-time PCR of angiotensinogen mRNA in liver and kidney of Sprague-Dawley rats", "type": "in vivo", "settings": "relative to PBS control", "method": "A control group of rats was injected with phosphate buffered saline (PBS) administered weekly for 4 weeks. The rats were sacrificed at the end of the study at week 4. Whole liver and kidney were harvested for RNA analysis and plasma was collected for protein analysis. RNA was extracted from liver tissue for real-time PCR analysis of angiotensinogen, using primer probe set RTS3550 (forward sequence [NT], designated herein as SEQ ID NO: 18; reverse sequence [NT], designated herein as SEQ ID NO: 19; probe sequence [NT], designated herein as SEQ ID NO: 20). The mRNA levels were normalized using the housekeeping gene, GAPDH. […] Results are presented as percent inhibition of angiotensinogen, relative to control."}, "female SHR rats [4]": {"system": "female SHR rats", "assay": "Blood pressure by tail-cuff method in female SHR rats with subsequent Captopril, Study 2", "type": "in vivo, Spontaneously hypertensive (SHR) rats", "settings": "then Captopril 50 mg/kg/day for 4 days", "method": "A control group of female SHR rats was injected with phosphate buffered saline (PBS) administered weekly for 2 weeks. Another control group constituted a group of wild-type rats injected with phosphate buffered saline (PBS) administered weekly for 2 weeks. […] Systolic blood pressure (SBP), mean arterial pressure (MAP), and diastolic blood pressure (DBP) in the rats was measured by the tail-cuff volume-pressure method (Kent Scientific, Torrington, Conn.)."}, "angiotensinogen mRNA [5]": {"system": "angiotensinogen mRNA", "assay": "Real-time PCR of angiotensinogen mRNA in SHR tissues, Study 3", "type": "in vivo, Spontaneously hypertensive (SHR) rats", "settings": "3 weeks, oligonucleotides 100 mg/kg/week, Captopril 150 mg/kg/day", "method": "(§2) A group of SHR was injected with 100 mg/kg/week of ISIS 552668 administered for 3 weeks. A control group of SHR was injected with phosphate buffered saline (PBS) administered weekly for 3 weeks. Another control group of SHR was injected with 100 mg/kg/week of a control oligonucleotide (a nucleotide not targeted to angiotensinogen) administered for 3 weeks.\n[…] The mRNA levels were normalized using the housekeeping gene, GAPDH. […] Results are presented as percent inhibition of angiotensinogen, relative to control."}, "renin mRNA": {"system": "renin mRNA", "assay": "Real-time PCR of kidney renin mRNA in SHR, Study 3", "type": "in vivo, Spontaneously hypertensive (SHR) rats", "settings": "3 weeks, oligonucleotides 100 mg/kg/week, Captopril 150 mg/kg/day, PBS = 100", "method": "A control group of SHR was injected with phosphate buffered saline (PBS) administered weekly for 3 weeks. Another control group of SHR was injected with 100 mg/kg/week of a control oligonucleotide (a nucleotide not targeted to angiotensinogen) administered for 3 weeks. […] RNA was extracted from kidney tissue for real-time PCR analysis of renin, using primer probe set rRenin2 (forward sequence [NT], designated herein as SEQ ID NO: 21; reverse sequence [NT], designated herein as SEQ ID NO: 22; probe sequence [NT], designated herein as SEQ ID NO: 23). The mRNA levels were normalized using the housekeeping gene, GAPDH. […] Increase in renin in the body is deleterious to the overall health of the animal (Nguyen and Muller, The Biology of the (Pro)Renin Receptor, J Am Soc Nephrol, 2010 January, 21(1):18-23). […] Results are presented as percent expression of renin, relative to control."}, "Sprague-Dawley rats": {"system": "Sprague-Dawley rats", "assay": "Blood pressure by tail-cuff volume-pressure method in Sprague-Dawley rats", "type": "in vivo", "settings": "after 4 wks of treatments", "method": "(§3) Groups of Sprague-Dawley rats were injected with 10 mg/kg/week, 20 mg/kg/week, 40 mg/kg/week, or 80 mg/kg/week of ISIS 552668 administered for 4 weeks. A control group of rats was injected with phosphate buffered saline (PBS) administered weekly for 4 weeks. The rats were sacrificed at the end of the study at week 4. Whole liver and kidney were harvested for RNA analysis and plasma was collected for protein analysis.\nas §1"}, "angiotensinogen protein [6]": {"system": "angiotensinogen protein", "assay": "ELISA of angiotensinogen plasma levels in Sprague-Dawley rats", "type": "in vivo", "settings": "for Percent inhibition of angiotensinogen protein: plasma, relative to PBS control", "method": "as §3\n(§4) Angiotensinogen plasma levels were measured by ELISA (IBL International, Toronto, Canada). […] Results are presented as percent inhibition of angiotensinogen, relative to PBS control."}, "angiotensinogen protein [7]": {"system": "angiotensinogen protein", "assay": "ELISA of angiotensinogen plasma levels in SHR, Study 3", "type": "in vivo, Spontaneously hypertensive (SHR) rats", "settings": "3 weeks, oligonucleotides 100 mg/kg/week, Captopril 150 mg/kg/day", "method": "as §2, §4"}},
  "note": "Oligonucleotides are written 5' to 3', each unit as a sugar letter and its base; * is a phosphorothioate linkage, no mark a phosphodiester; rarer units and linkages stand in square brackets, end groups in braces. Plain capitals give the bases only. e = 2'-O-(2-methoxyethyl) (MOE); [5mC] = 5-methylcytosine; d = 2'-deoxy (DNA)",
  "data": [
    {"substance": "ISIS 552668: 5-10-5 MOE gapmer CACTGATTTTTGCCCAGGAT (SEQ ID NO: 17), phosphorothioate linkages, 5-methylcytosines, targeted to rat angiotensinogen (antisense e[5mC]*eA*e[5mC]*eT*eG*dA*dT*dT*dT*dT*dT*dG*d[5mC]*d[5mC]*d[5mC]*eA*eG*eG*eA*eT)", "values": [
      {"measurement": "Effect on heart size of the SHR rats", "setting": "female SHR rats [1]", "result": "reversed the increase in heart size of the SHR rats to that observed in the wild-type controls"},
      {"measurement": "DBP", "setting": "female SHR rats [2]; 50 mg/kg/wk", "result": 100, "unit": "mm Hg"},
      {"measurement": "MAP", "setting": "female SHR rats [2]; 50 mg/kg/wk", "result": 114, "unit": "mm Hg"},
      {"measurement": "SBP", "setting": "female SHR rats [2]; 50 mg/kg/wk", "result": 144, "unit": "mm Hg"},
      {"measurement": "DBP", "setting": "female SHR rats [2]; 75 mg/kg/wk", "result": 98, "unit": "mm Hg"},
      {"measurement": "MAP", "setting": "female SHR rats [2]; 75 mg/kg/wk", "result": 111, "unit": "mm Hg"},
      {"measurement": "SBP", "setting": "female SHR rats [2]; 75 mg/kg/wk", "result": 140, "unit": "mm Hg"},
      {"measurement": "DBP", "setting": "female SHR rats [2]; 100 mg/kg/wk", "result": 81, "unit": "mm Hg"},
      {"measurement": "MAP", "setting": "female SHR rats [2]; 100 mg/kg/wk", "result": 95, "unit": "mm Hg"},
      {"measurement": "SBP", "setting": "female SHR rats [2]; 100 mg/kg/wk", "result": 122, "unit": "mm Hg"},
      {"measurement": "Percent inhibition of angiotensinogen mRNA, Kidney", "setting": "angiotensinogen mRNA [3]; 10 mg/kg/wk for 4 weeks", "result": 41, "unit": "%"},
      {"measurement": "Percent inhibition of angiotensinogen mRNA, Liver", "setting": "angiotensinogen mRNA [3]; 10 mg/kg/wk for 4 weeks", "result": 19, "unit": "%"},
      {"measurement": "Percent inhibition of angiotensinogen mRNA, Kidney", "setting": "angiotensinogen mRNA [3]; 20 mg/kg/wk for 4 weeks", "result": 68, "unit": "%"},
      {"measurement": "Percent inhibition of angiotensinogen mRNA, Liver", "setting": "angiotensinogen mRNA [3]; 20 mg/kg/wk for 4 weeks", "result": 59, "unit": "%"},
      {"measurement": "Percent inhibition of angiotensinogen mRNA, Kidney", "setting": "angiotensinogen mRNA [3]; 40 mg/kg/wk for 4 weeks", "result": 75, "unit": "%"},
      {"measurement": "Percent inhibition of angiotensinogen mRNA, Liver", "setting": "angiotensinogen mRNA [3]; 40 mg/kg/wk for 4 weeks", "result": 86, "unit": "%"},
      {"measurement": "Percent inhibition of angiotensinogen mRNA, Kidney", "setting": "angiotensinogen mRNA [3]; 80 mg/kg/wk for 4 weeks", "result": 77, "unit": "%"},
      {"measurement": "Percent inhibition of angiotensinogen mRNA, Liver", "setting": "angiotensinogen mRNA [3]; 80 mg/kg/wk for 4 weeks", "result": 96, "unit": "%"},
      {"measurement": "DBP", "setting": "female SHR rats [4]; ASO 50 mg/kg/wk for 2 weeks", "result": 82, "unit": "mm Hg"},
      {"measurement": "MAP", "setting": "female SHR rats [4]; ASO 50 mg/kg/wk for 2 weeks", "result": 97, "unit": "mm Hg"},
      {"measurement": "SBP", "setting": "female SHR rats [4]; ASO 50 mg/kg/wk for 2 weeks", "result": 127, "unit": "mm Hg"},
      {"measurement": "DBP", "setting": "female SHR rats [4]; ASO 75 mg/kg/wk for 2 weeks", "result": 74, "unit": "mm Hg"},
      {"measurement": "MAP", "setting": "female SHR rats [4]; ASO 75 mg/kg/wk for 2 weeks", "result": 87, "unit": "mm Hg"},
      {"measurement": "SBP", "setting": "female SHR rats [4]; ASO 75 mg/kg/wk for 2 weeks", "result": 113, "unit": "mm Hg"},
      {"measurement": "DBP", "setting": "female SHR rats [4]; ASO 100 mg/kg/wk for 2 weeks", "result": 81, "unit": "mm Hg"},
      {"measurement": "MAP", "setting": "female SHR rats [4]; ASO 100 mg/kg/wk for 2 weeks", "result": 94, "unit": "mm Hg"},
      {"measurement": "SBP", "setting": "female SHR rats [4]; ASO 100 mg/kg/wk for 2 weeks", "result": 120, "unit": "mm Hg"},
      {"measurement": "Percent inhibition of angiotensinogen mRNA compared to the PBS control, Heart", "setting": "angiotensinogen mRNA [5]", "result": 89, "unit": "%"},
      {"measurement": "Percent inhibition of angiotensinogen mRNA compared to the PBS control, Kidney", "setting": "angiotensinogen mRNA [5]", "result": 76, "unit": "%"},
      {"measurement": "Percent inhibition of angiotensinogen mRNA compared to the PBS control, Liver", "setting": "angiotensinogen mRNA [5]", "result": 87, "unit": "%"},
      {"measurement": "Percent increase of kidney renin mRNA", "setting": "renin mRNA", "result": 379, "unit": "%"},
      {"measurement": "DBP", "setting": "Sprague-Dawley rats; 10 mg/kg/wk", "result": 107, "unit": "mm Hg"},
      {"measurement": "MAP", "setting": "Sprague-Dawley rats; 10 mg/kg/wk", "result": 117, "unit": "mm Hg"},
      {"measurement": "SBP", "setting": "Sprague-Dawley rats; 10 mg/kg/wk", "result": 138, "unit": "mm Hg"},
      {"measurement": "DBP", "setting": "Sprague-Dawley rats; 40 mg/kg/wk", "result": 79, "unit": "mm Hg"},
      {"measurement": "MAP", "setting": "Sprague-Dawley rats; 40 mg/kg/wk", "result": 92, "unit": "mm Hg"},
      {"measurement": "SBP", "setting": "Sprague-Dawley rats; 40 mg/kg/wk", "result": 118, "unit": "mm Hg"},
      {"measurement": "DBP", "setting": "Sprague-Dawley rats; 80 mg/kg/wk", "result": 68, "unit": "mm Hg"},
      {"measurement": "MAP", "setting": "Sprague-Dawley rats; 80 mg/kg/wk", "result": 82, "unit": "mm Hg"},
      {"measurement": "SBP", "setting": "Sprague-Dawley rats; 80 mg/kg/wk", "result": 109, "unit": "mm Hg"},
      {"measurement": "Percent inhibition of angiotensinogen protein", "setting": "angiotensinogen protein [6]; 10 mg/kg/wk for 4 weeks", "result": 25, "unit": "%"},
      {"measurement": "Percent inhibition of angiotensinogen protein", "setting": "angiotensinogen protein [6]; 20 mg/kg/wk for 4 weeks", "result": 38, "unit": "%"},
      {"measurement": "Percent inhibition of angiotensinogen protein", "setting": "angiotensinogen protein [6]; 40 mg/kg/wk for 4 weeks", "result": 83, "unit": "%"},
      {"measurement": "Percent inhibition of angiotensinogen protein", "setting": "angiotensinogen protein [6]; 80 mg/kg/wk for 4 weeks", "result": 93, "unit": "%"},
      {"measurement": "ED50 for plasma protein reductions", "setting": "angiotensinogen protein [6]; weekly dosing for 4 weeks", "result": 23.6, "unit": "mg/kg"},
      {"measurement": "Percent inhibition of angiotensinogen protein in the plasma compared to the PBS control", "setting": "angiotensinogen protein [7]", "result": 91, "unit": "%"}
    ]}
  ]
}
